The source of these data is the supplement of paper PMC8837787.

For this test, the system named is Saccharomyces cerevisiae ABC16-Green Monster. The note with it: 18 h; 30 °C; YPD. The method, boiled down:
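IC50 values come from GraphPad Prism fits of log(inhibitor) versus response, with variable slope, applied to background-subtracted optical density. The assay used 96-well plates holding 200 µl per well of log-phase drug-sensitive S. cerevisiae ABC16-Green Monster in YPD. Compound was added as eight 1:2 dilutions spanning final concentrations of 0.1–150 μM, in biological duplicate, and plates were kept at 30 °C for 18 h, with OD600 measured at 0 h and 18 h.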

Molecule `COc1ccc(C2CC(=O)C3=C(C2)NC(C)=C(C(=O)OC2CCCC2)C3c2ccc([N+](=O)[O-])cc2)cc1OC` (stereo unspecified) [GNF-Pf-5639] had an IC50 growth inhibition of 9.8 µM.

Take `Cn1c(N)c(C(=O)CSc2nnc(-c3ccccc3)c(-c3ccccc3)n2)c(=O)n(C)c1=O`: the IC50 growth inhibition worked out at 22.9 µM.

As to `C=CC1(C)CC(=O)C2(O)C(C)(O1)C(OC(C)=O)C(O)C1C(C)(C)CCC(O)C12C` (stereo unspecified) [Forskolin], the IC50 growth inhibition is over 75 µM.

For the molecule `COc1ccccc1NC(=O)c1ccc(NC(=O)Cn2ncc(Cl)c(Cl)c2=O)cc1`, the IC50 growth inhibition was found to be 0.238 µM.

For the molecule `O=C1N(Cc2cc3ccccc3s2)CC2CN(Cc3ccccc3)CCN12` (stereo unspecified), the IC50 growth inhibition came out at 30.2 µM.

Take `CCOc1ccc(C(=O)CN(C#N)C(=O)c2ccccc2)cc1`: the IC50 growth inhibition was 25 µM.

Take `Cc1ccc(NC(=O)c2ccc(CN3CCN(C)CC3)cc2)cc1Nc1nccc(-c2cccnc2)n1` [Imatinib]: the IC50 growth inhibition is over 75 µM.

Consider `Cc1ccc(-c2nc(CN(Cc3ccccn3)C(C)C)cs2)o1`, for which the IC50 growth inhibition came to 12 µM.

As to `C[C@H]1CC[C@H](n2c3cnccc3c3cnc(Nc4ccc5c(n4)CCN(C(=O)CO)C5)nc32)CC1` [AMG 925], the IC50 growth inhibition was over 75 µM.

In the case of `Cc1cc(N(C)Cc2ccccc2Br)nc(N)n1`, the IC50 growth inhibition was 52.6 µM.

In the case of `COc1cccc(-n2nnnc2S(C)(=O)=O)c1`, the IC50 growth inhibition is 53.8 µM.

As to `Cc1cc(NC(C)C)n2ncc(-c3ccc(F)cc3)c2n1`, the IC50 growth inhibition was found to be 90.7 µM.

As to `c1ccc(-c2nc(NC3CCCCC3)cc(C3CC3)n2)nc1`, the IC50 growth inhibition is 44.5 µM.

`CCN1C(=Cc2cc(C)[n+](CCCN3CCOCC3)c(C)c2)Sc2ccccc21` gave an IC50 growth inhibition of 55.3 µM.

For the molecule `CC(C)c1cc(NCc2ccccn2)n2ncc(-c3ccccc3)c2n1`, the IC50 growth inhibition came to 0.45 µM.

In turn, `CC(c1cc(Cl)cc(Cl)c1)N(C)c1ncc2c(N)nc(N)nc2n1` (stereo unspecified) gave an IC50 growth inhibition of 40.1 µM.

`CC(CN1c2ccccc2Sc2ccccc21)N(C)C` (stereo unspecified) [Promethazine] came in with an IC50 growth inhibition of 98.9 µM.

The molecule `OC(Cn1cncn1)(Cn1cncn1)c1ccc(F)cc1F` [Fluconazole] displayed an IC50 growth inhibition of 3.14 µM.

With `O=C(Nc1ccc2oc(-c3cccc4ccccc34)nc2c1)c1ccc([N+](=O)[O-])o1` [GNF-PF-2740], the IC50 growth inhibition was found to be 0.941 µM.

Regarding `CN1CCN(S(=O)(=O)c2ccc(-c3ccc4c(Nc5ncc(Cl)cn5)ccnc4c3)cc2)CC1`, the IC50 growth inhibition was 43.4 µM.

`COc1cc(Nc2ncc(F)c(Nc3ccc4c(n3)NC(=O)C(C)(C)O4)n2)cc(OC)c1OC` [Tamatinib besilate] showed an IC50 growth inhibition of over 75 µM.

As for `CC(C)Cn1c2c(c(O)c(C(=O)Nc3ncccc3O)c1=O)CCCC2` [CBR572], the IC50 growth inhibition is 46.9 µM.

On to `Oc1c(I)cc(I)c2cccnc12` [Iodoquinol], for which the IC50 growth inhibition is 5.5 µM.

Molecule `CCOc1ccc(-c2nc(CNCCc3ccc(F)cc3)cs2)cc1` registered an IC50 growth inhibition of 42.5 µM.

For the molecule `CN(Cc1nc(N)c2c3c(sc2n1)CCCC3)Cc1cccs1`, the IC50 growth inhibition was found to be 107 µM.

Regarding `CN1C=C/C(=C/c2ccc3ccccc3[n+]2C)c2ccccc21`, the IC50 growth inhibition amounted to 51.4 µM.

The molecule `CC1C=CC=CCCC=CC=CC=CC=CC(OC2OC(C)C(O)C(N)C2O)CC2OC(O)(CC(O)C(O)CCC(O)CC(O)CC(O)CC(=O)OC(C)C(C)C1O)CC(O)C2C(=O)O` (stereo unspecified) [Nystatin] had an IC50 growth inhibition of over 75 µM.

`CCC(NC(=O)c1ccccc1NC(=O)c1ccc(C)cc1)C(=O)OC` (stereo unspecified) showed an IC50 growth inhibition of 31.7 µM.

Molecule `Cc1cc(=O)[nH]c(-n2nc(C3CC3)cc2NC(=O)C2(c3ccc(Cl)cc3)CCCC2)n1` [CBR668] returned an IC50 growth inhibition of 1.93 µM.

`Cc1nn(C(=O)Nc2cccc(C(F)(F)F)c2)c(C)c1Sc1ncccn1` gave an IC50 growth inhibition of 45 µM.

On to `CC(C)c1cc(NCCCN2CCOCC2)n2ncc(-c3ccccc3)c2n1`, for which the IC50 growth inhibition was determined as 25.1 µM.

`O=C(Nc1nc(-c2ccccn2)cs1)C1CC1c1ccccc1F` (stereo unspecified): the IC50 growth inhibition came out at 6.32 µM.

In turn, `O=C(Nc1cccc(C(F)(F)F)c1)Nc1ncc([N+](=O)[O-])s1` had an IC50 growth inhibition of 52.4 µM.

Consider `NC(=O)[C@@H](CC1CC1)[C@@H](CCC(F)(F)F)C(=O)N[C@H]1N=C(c2ccccc2)c2cccc(F)c2NC1=O`, for which the IC50 growth inhibition worked out at 2.06 µM.

For the molecule `O=C(CC1NCCCC1O)Cn1cnc2ccccc2c1=O` (stereo unspecified) [Febrifugine], the IC50 growth inhibition is over 75 µM.

For the molecule `c1cc2c(cc1C1=NNC(=NC3CC3)SC1)CCCC2`, the IC50 growth inhibition is 50.8 µM.

On to `CNC(=O)c1cc(Oc2ccc(NC(=O)Nc3ccc(Cl)c(C(F)(F)F)c3)cc2)ccn1` [Sorafenib], for which the IC50 growth inhibition is 4.27 µM.

The molecule `Cc1cccc2sc(C(=O)NCc3cccc(NS(N)(=O)=O)c3)c(Cl)c12` registered an IC50 growth inhibition of 70.6 µM.

Take `CCS(=O)(=O)N1Cc2ccccc2CC1C(=O)Nc1nc2ccc(F)cc2s1` (stereo unspecified): the IC50 growth inhibition turned out to be 74 µM.

`Cc1ccc(Oc2ccc(NC(=O)CNc3ccccc3N3CCCC3=O)cc2)cc1` came in with an IC50 growth inhibition of 31.5 µM.

`CCN(CC)S(=O)(=O)c1ccc(C(=O)Nc2cc(C)nn2-c2nc(C)c(C)c(=O)[nH]2)cc1` yielded an IC50 growth inhibition of 68.4 µM.

For the molecule `COc1ccc(-c2onc(C(F)(F)F)c2-c2ccc(Cl)cc2)c(O)c1`, the IC50 growth inhibition was 48.6 µM.

In turn, `Brc1ccc(Nc2nc3ccccc3nc2Nc2ccc(Br)cc2)cc1` had an IC50 growth inhibition of 2.31 µM.

On to `COC=C(C(=O)OC)c1ccccc1Oc1cc(Oc2ccccc2C#N)ncn1` [Azoxystrobin], for which the IC50 growth inhibition is over 75 µM.

`CC1=Nn2cc(-c3ccccc3)nc2SC1c1ccccc1` (stereo unspecified) registered an IC50 growth inhibition of 64.2 µM.

As for `O=C1C2=C(Nc3ccccc3SC2c2ccccc2F)c2ccccc21` (stereo unspecified), the IC50 growth inhibition was determined as 9.02 µM.

As for `CCOC(=O)Nc1ccc(NCc2ccc(F)cc2)cc1N` [Retigabine], the IC50 growth inhibition was over 75 µM.

`C(#Cc1ccc(-c2cc[nH]n2)s1)c1ccccc1` came in with an IC50 growth inhibition of 18.9 µM.

`C[C@H](c1ccc2c(c1)CCCC2)N(C)c1ncc2c(N)nc(N)nc2n1` came in with an IC50 growth inhibition of 30.5 µM.

In turn, `N.N.O=C([O-])C1(C(=O)[O-])CCC1.[Pt+2]` [Carboplatin] yielded an IC50 growth inhibition of over 75 µM.

Regarding `Cc1ccc2c(Br)cc(Br)c(OC(=O)c3ccccc3)c2n1` [Broxaldine], the IC50 growth inhibition worked out at 2.24 µM.

For `CCOC(=O)NC(=O)c1ccsc1NC(=O)c1nc2ccccc2s1`, the IC50 growth inhibition amounted to 34.6 µM.

Consider `Clc1cccc(C(c2ccc(CN3CCNCC3)cc2)n2ccnc2)c1` (stereo unspecified), for which the IC50 growth inhibition is 28.7 µM.

Turning to `Clc1ccccc1-c1nc([P+](c2ccccc2)(c2ccccc2)c2ccccc2)c(N2CCOCC2)o1` [GNF-PF-2863], the IC50 growth inhibition amounted to 8.55 µM.

Take `CN(C)C(=N)N=C(N)N` [Metformin]: the IC50 growth inhibition was over 75 µM.

`FC(F)Sc1ccc2nc3ccccc3c(N3CCOCC3)c2c1` came in with an IC50 growth inhibition of 30 µM.

`COC(=O)C1=C(C)NC(C)=C(C(=O)OC(C)C)C1c1cccc2nonc12` (stereo unspecified) [Israpidine] yielded an IC50 growth inhibition of over 150 µM.

As for `O=C(c1cccs1)N1CCN(c2ccc([N+](=O)[O-])c(NC3CC3)c2)CC1` [GNF-Pf-3455], the IC50 growth inhibition is over 150 µM.

For `NC(CC(=O)c1ccc(Cl)cc1Cl)C(Cl)(Cl)Cl` (stereo unspecified), the IC50 growth inhibition worked out at 46.4 µM.

Regarding `COCCNc1cc(C(C)C)nc2c(-c3ccccc3)cnn12`, the IC50 growth inhibition is 52.6 µM.

In turn, `CNC1CCC(c2ccc(Cl)c(Cl)c2)c2ccccc21.Cl` (stereo unspecified) [Sertraline] displayed an IC50 growth inhibition of 13.4 µM.

For `Cc1ccc2c(c1C)NC(=O)C21NN=C(c2ccccc2)S1` (stereo unspecified), the IC50 growth inhibition turned out to be 10.2 µM.

Turning to `Cc1cc(C(=O)ONC(=N)c2ccccc2)nn1C(C)(C)C`, the IC50 growth inhibition is 63.5 µM.

For `CCC(C)CC(C)CCCCCCCCC(=O)NC1CC(O)C(NCCN)NC(=O)C2C(O)CCN2C(=O)C(C(O)CCN)NC(=O)C(C(O)C(O)c2ccc(O)cc2)NC(=O)C2CC(O)CN2C(=O)C(C(C)O)NC1=O` (stereo unspecified) [Caspofungin], the IC50 growth inhibition came out at 0.0305 µM.

Molecule `CN1CCCN=C1C=Cc1cccs1.O=C(O)c1cc2ccccc2c(Cc2c(O)c(C(=O)O)cc3ccccc23)c1O` [Pyrantal Pamoate] showed an IC50 growth inhibition of over 75 µM.

Regarding `Cc1[nH]c2ccccc2c(=O)c1CC=C(Cl)Cl` [GNF-Pf-4439], the IC50 growth inhibition was over 150 µM.

In turn, `CC(C)(C)n1nc(Cc2cccc3ccccc23)c2c(N)ncnc21` yielded an IC50 growth inhibition of 27.6 µM.

`Cc1ccc(C2Sc3ccccc3N=C3C2=C(O)c2ccccc23)cc1` (stereo unspecified) [GNF-Pf-5468]: the IC50 growth inhibition came out at 4.95 µM.

`COc1ccc(C2c3ccc4ccccc4c3Oc3ncn(CCCN(C)C)c(=N)c32)cc1` (stereo unspecified) yielded an IC50 growth inhibition of 28.9 µM.

For the molecule `C=CCC1C=C(C)CC(C)CC(OC)C2OC(O)(C(=O)C(=O)N3CCCCC3C(=O)OC(C(C)=CC3CCC(O)C(OC)C3)C(C)C(O)CC1=O)C(C)CC2OC` (stereo unspecified) [Tacrolimus/FK-506], the IC50 growth inhibition is over 75 µM.

As for `COC(=O)Nc1nc2cc(C(=O)c3ccccc3)ccc2[nH]1`, the IC50 growth inhibition was found to be 58.4 µM.

With `COc1cccc(-n2nnnc2S(=O)(=O)Cc2ccccc2)c1`, the IC50 growth inhibition came to 16.1 µM.

In turn, `Nc1ncnc2c1ncn2CC(O)C(O)C(=O)O` (stereo unspecified) [Eritadenine] came in with an IC50 growth inhibition of over 75 µM.

With `CN1CC(C(=O)NC2(C)OC3(O)C4CCCN4C(=O)C(Cc4ccccc4)N3C2=O)CC2c3cccc4[nH]cc(c34)CC21` (stereo unspecified) [Dihydroergotamine], the IC50 growth inhibition is over 75 µM.

Turning to `N#CC(c1ccc(Cl)cc1)c1c(Cl)cc(-n2ncc(=O)[nH]c2=O)cc1Cl` (stereo unspecified) [Diclazuril], the IC50 growth inhibition turned out to be 68.5 µM.

For `O=C(O)c1ccc2c(c1)nc(Nc1cccc(Cl)c1)c1ccncc12` [Silmitasertib], the IC50 growth inhibition was over 75 µM.
